According to ChEMBL document CHEMBL1201862, “PubChem BioAssay data set” (2004):
Blank lines part the entries; values can stand above or below the compound they belong to. Activity calls are given as the source filed them.

Assays:
[1] = biological target: T1, Rac GTPase-activating protein 1 (Homo sapiens, UniProt Q9H0H5); experiment: MgcRacGAP GTPase-activating activity inhibitors, confirmation, biochemical, ADP Hunter fluorescence, primary and confirmatory (AID 624330); assay type: functional
T1 sequence (Q9H0H5 whole entry): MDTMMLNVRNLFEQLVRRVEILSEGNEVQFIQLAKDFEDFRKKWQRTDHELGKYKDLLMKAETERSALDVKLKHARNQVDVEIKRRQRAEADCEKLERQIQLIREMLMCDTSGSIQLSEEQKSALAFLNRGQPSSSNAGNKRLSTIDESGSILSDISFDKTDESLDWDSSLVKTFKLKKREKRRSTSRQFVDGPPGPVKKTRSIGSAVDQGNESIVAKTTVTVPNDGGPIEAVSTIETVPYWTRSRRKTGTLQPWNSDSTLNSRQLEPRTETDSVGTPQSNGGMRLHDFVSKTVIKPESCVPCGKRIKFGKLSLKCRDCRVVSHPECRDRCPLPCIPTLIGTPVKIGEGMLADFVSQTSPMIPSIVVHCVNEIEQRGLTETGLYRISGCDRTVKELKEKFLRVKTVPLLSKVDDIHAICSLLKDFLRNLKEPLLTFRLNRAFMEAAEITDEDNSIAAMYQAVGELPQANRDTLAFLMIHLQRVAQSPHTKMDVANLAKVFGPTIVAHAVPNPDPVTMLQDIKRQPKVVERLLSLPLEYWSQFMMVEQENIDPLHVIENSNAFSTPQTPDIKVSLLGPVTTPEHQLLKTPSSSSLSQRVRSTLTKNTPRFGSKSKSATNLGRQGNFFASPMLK

[2] = biological target: Cytochrome P450 3A4 (Homo sapiens, UniProt P08684); settings: Potency;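 further: confirmatory qHTS run detecting inhibitors and substrates of CYP3A4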
[3] = biological target: T2, fMet-Leu-Phe receptor (Homo sapiens, UniProt P21462); experiment: FPR ligands, dose response (AID 519); assay type: functional
T2 sequence (P21462 whole entry): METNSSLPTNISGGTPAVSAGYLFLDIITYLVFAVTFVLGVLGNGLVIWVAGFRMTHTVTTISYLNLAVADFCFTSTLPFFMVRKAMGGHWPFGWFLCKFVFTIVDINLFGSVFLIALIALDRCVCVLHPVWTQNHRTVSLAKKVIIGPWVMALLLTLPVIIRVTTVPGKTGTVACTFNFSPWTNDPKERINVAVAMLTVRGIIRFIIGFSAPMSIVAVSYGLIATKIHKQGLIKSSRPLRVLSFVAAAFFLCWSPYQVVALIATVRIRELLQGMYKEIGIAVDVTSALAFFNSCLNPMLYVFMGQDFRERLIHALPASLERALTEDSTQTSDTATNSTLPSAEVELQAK

[4] = IOSE-T80 ovarian epithelial cell cytotoxicity, dose response, cytotoxicity control for PAX8 inhibitor project, plate reader, dry powder samples (AID 743045); assay type: functional, cell-based
[5] = cytotoxicity in OVCAR8 ovarian cancer cells, dose response, PAX8 project, cell-based, plate reader, dry powder samples (AID 743197); assay type: functional; settings: OVCAR-8
[6] = biological target: Paired box protein Pax-8 (Homo sapiens, UniProt Q06710); experiment: inhibitors of PAX8-driven TPO luciferase reporter, dose response, RMG-I cells, cherry-pick (AID 687027); assay type: functional, cell-based;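 further: luciferase reporter driven by Pax8 target thyroperoxidase promoter measured by SteadyGlo luminescence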
[7] = NIH:OVCAR-3 ovarian cancer cell cytotoxicity, dose response, PAX8 inhibitor project, plate reader, dry powder samples (AID 743044); assay type: functional, cell-based
[8] = CRF-BP/CRF-R2 complex antagonists, dose response, cell-based, uHTS hits, 384-well (AID 651639); assay type: functional, Homo sapiens; settings: read-out: IC50_Mean
[9] = ADAM10 protease inhibitors, dose response, selectivity assay for ADAM17 exosite inhibitor project, biochemical, FRET peptide substrate, recombinant human ADAM10 (AID 743259);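 further: ADAM10 enzyme cleaving a FRET peptide substrate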
[10] = biological target: T3, Calpain-2 catalytic subunit (Sus scrofa, UniProt P43367); experiment: pig calpain II inhibitor potency, dose response, biochemical, fluorogenic peptide substrate (AID 1420); assay type: functional
T3 sequence (P43367 whole entry): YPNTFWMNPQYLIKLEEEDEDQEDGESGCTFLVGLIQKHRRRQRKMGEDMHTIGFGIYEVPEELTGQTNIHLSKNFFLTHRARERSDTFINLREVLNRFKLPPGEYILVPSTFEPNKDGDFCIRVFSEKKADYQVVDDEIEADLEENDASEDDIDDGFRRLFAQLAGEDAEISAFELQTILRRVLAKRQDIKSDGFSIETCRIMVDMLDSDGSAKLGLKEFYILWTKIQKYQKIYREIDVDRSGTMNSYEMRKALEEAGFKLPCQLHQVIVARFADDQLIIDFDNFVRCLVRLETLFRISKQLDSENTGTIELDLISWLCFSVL

[11] = biological target: Disintegrin and metalloproteinase domain-containing protein 17 (Homo sapiens, UniProt P78536); experiment: exosite inhibitors of ADAM17, dose response, biochemical (AID 743260)
[12] = biological target: T4, Corticotropin-releasing factor receptor 2/Corticotropin-releasing factor-binding protein (Homo sapiens, UniProt P24387+Q13324); experiment: activators of CRF receptor 2 with binding protein – uHTS hits, confirmation (AID 602473); assay type: functional; settings: read-out: EC50_Mean
T4 sequence (Q13324 whole entry): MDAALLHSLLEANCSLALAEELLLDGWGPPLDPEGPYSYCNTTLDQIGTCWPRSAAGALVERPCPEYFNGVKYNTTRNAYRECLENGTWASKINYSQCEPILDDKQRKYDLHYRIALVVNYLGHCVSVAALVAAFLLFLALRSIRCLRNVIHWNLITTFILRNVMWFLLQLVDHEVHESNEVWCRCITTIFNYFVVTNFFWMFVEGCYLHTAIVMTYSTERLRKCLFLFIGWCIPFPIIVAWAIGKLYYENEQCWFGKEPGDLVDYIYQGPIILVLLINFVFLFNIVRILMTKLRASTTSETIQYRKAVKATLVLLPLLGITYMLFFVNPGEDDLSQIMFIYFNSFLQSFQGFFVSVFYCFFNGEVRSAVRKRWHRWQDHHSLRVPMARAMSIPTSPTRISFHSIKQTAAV
T4 sequence (P24387 whole entry): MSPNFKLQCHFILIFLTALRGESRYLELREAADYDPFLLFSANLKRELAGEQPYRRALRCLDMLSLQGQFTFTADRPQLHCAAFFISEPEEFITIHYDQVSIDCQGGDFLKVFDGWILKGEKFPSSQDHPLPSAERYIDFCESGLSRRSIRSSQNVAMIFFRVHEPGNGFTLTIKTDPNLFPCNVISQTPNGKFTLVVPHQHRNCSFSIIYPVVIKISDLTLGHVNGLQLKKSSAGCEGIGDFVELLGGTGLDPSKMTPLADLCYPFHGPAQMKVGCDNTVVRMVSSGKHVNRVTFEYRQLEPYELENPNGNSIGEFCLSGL

[13] = biological target: T4, Corticotropin-releasing factor receptor 2/Corticotropin-releasing factor-binding protein; experiment: Dose Response confirmation of uHTS hits for small molecule antagonists of the CRF-binding protein and CRF-R2 receptor complex.; assay type: functional; settings: read-out: IC50_Mean
[14] = biological target: T5, Estrogen receptor (Homo sapiens, UniProt P03372);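 further: potency for inhibiting coactivator peptide recruitment to the receptor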
T5 sequence (P03372 whole entry): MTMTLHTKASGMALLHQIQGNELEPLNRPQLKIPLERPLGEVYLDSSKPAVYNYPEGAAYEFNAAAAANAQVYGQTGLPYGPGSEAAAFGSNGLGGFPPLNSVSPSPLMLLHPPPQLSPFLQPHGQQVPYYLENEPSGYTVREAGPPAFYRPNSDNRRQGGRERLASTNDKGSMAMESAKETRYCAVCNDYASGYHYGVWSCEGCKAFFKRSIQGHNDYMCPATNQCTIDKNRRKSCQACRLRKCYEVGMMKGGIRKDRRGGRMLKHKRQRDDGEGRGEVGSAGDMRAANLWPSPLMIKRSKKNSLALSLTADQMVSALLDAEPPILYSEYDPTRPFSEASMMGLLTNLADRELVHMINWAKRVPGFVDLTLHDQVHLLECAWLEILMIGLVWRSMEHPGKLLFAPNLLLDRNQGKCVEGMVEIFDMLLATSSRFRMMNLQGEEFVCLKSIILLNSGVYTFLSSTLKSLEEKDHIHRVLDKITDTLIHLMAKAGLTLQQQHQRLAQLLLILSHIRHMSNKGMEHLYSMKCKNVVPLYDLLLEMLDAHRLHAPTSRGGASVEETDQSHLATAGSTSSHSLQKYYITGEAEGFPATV

[15] = HCT116 cell viability decrease, GSK3B pretreatment – CellTiter-Glo, IC50, dose response (AID 1117339); assay type: functional; settings: HCT-116
[16] = cytotoxicity toward HCT116 cells – cell-based, CellTiter-Glo luminescence, IC50, dose response (AID 1117332); assay type: functional; settings: HCT-116
[17] = cytotoxicity toward Colo320 cells – cell-based, CellTiter-Glo luminescence, IC50, dose response (AID 1117334); assay type: functional; settings: COLO 320
[18] = CellTiter-Glo luminescent dose response of DLD-1 viability loss (AID 1117352); assay type: functional
[19] = RKO cell viability reduction, dose response, CellTiter-Glo luminescence (AID 1117322); assay type: functional
[20] = SNU-C1 cell viability reduction, dose response, CellTiter-Glo luminescence (AID 1117323); assay type: functional, cell-based
[21] = biological target: T6, Aminopeptidase N (Plasmodium falciparum FcB1/Columbia, UniProt O96935); experiment: P. falciparum M1AAP inhibitors, biochemical, fluorogenic H-Leu-NHMec substrate, 1536-well (AID 1445); set-up: species or system Plasmodium falciparum 3D7, 3D7
T6 sequence (O96935 whole entry): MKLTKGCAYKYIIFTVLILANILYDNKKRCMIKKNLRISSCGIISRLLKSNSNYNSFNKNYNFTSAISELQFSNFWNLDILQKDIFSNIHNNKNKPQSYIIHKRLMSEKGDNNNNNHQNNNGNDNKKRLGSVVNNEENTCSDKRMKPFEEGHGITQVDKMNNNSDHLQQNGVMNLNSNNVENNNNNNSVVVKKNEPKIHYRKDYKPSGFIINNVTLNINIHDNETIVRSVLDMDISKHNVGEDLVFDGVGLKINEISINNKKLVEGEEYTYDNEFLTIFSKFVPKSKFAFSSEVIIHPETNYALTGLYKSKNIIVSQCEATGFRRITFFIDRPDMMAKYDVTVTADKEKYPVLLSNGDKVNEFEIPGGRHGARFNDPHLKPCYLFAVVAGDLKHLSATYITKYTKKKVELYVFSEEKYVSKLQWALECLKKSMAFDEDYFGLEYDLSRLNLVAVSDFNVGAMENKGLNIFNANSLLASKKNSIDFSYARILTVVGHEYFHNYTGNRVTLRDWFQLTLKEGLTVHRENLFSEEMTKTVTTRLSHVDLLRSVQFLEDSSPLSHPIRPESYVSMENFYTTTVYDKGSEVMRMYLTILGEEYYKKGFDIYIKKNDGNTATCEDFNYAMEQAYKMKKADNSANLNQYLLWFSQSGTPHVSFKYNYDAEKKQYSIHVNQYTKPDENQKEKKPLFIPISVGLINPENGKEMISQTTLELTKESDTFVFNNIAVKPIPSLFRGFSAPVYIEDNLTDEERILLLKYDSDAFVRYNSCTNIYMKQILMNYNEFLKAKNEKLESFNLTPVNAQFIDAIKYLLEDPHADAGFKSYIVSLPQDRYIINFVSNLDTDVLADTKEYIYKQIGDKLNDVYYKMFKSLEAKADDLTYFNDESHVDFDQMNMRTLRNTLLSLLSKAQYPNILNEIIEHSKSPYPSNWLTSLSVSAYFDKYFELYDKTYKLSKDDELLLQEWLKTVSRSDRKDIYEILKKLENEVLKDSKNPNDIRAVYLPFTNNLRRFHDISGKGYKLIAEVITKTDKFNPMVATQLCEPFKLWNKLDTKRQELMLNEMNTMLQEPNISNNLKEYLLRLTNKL

[22] = cytotoxicity toward NIH3T3 fibroblasts, dose response, counter-screen, cell-based, ATP luminescence, mouse fibroblasts (AID 2010); assay type: functional;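 further: cells exposed to compound for about 90 hours before reading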
[23] = cells
[24] = inhibitors of intracellular T. cruzi replication, confirmation, NIH3T3 host cells, beta-gal luminescence (AID 2044); assay type: functional, cell-based;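 further: intracellular parasites grown in NIH/3T3 mouse fibroblasts as host cells; luminescent beta-galactosidase reporter signal from transgenic T. cruzi replicating inside host cells; inhibitors lower the luminescence signal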

Sequence of Cytochrome P450 3A4 (P08684 whole entry): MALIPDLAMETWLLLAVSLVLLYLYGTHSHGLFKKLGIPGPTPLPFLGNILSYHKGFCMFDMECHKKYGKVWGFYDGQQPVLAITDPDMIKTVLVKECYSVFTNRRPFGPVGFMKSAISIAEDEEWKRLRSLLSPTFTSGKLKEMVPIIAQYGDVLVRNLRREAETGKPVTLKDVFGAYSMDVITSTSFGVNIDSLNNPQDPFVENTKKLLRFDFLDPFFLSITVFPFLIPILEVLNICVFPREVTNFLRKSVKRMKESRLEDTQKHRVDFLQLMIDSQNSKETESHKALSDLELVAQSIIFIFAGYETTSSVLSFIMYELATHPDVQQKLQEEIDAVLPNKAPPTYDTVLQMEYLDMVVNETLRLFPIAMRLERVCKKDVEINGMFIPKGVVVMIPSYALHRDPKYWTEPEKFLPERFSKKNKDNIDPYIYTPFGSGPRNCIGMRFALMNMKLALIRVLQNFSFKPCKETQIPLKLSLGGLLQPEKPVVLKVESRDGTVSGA
Sequence of Disintegrin and metalloproteinase domain-containing protein 17 (P78536 whole entry, the tested form may be a part): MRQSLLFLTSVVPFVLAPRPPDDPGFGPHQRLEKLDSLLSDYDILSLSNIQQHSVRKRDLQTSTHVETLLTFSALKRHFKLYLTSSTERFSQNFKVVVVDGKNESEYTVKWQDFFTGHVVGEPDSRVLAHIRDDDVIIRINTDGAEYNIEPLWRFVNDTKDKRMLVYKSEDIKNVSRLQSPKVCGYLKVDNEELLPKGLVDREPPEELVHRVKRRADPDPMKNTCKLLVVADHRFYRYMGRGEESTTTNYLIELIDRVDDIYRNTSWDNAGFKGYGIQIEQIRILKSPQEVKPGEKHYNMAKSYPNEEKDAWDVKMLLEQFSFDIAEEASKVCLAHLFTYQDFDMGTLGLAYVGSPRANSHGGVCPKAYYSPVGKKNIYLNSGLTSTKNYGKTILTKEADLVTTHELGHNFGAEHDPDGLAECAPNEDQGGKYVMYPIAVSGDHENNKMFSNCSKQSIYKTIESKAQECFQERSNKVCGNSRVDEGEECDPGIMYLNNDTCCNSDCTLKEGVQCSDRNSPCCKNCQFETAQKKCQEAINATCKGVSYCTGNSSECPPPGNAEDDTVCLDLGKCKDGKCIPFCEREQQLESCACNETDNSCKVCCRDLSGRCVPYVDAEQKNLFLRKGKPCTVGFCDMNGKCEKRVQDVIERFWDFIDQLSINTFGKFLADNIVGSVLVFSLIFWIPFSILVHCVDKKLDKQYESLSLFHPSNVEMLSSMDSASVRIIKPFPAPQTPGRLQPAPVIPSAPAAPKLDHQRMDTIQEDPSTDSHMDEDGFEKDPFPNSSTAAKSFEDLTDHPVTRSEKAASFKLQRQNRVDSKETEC
Sequence of Paired box protein Pax-8 (Q06710 whole entry): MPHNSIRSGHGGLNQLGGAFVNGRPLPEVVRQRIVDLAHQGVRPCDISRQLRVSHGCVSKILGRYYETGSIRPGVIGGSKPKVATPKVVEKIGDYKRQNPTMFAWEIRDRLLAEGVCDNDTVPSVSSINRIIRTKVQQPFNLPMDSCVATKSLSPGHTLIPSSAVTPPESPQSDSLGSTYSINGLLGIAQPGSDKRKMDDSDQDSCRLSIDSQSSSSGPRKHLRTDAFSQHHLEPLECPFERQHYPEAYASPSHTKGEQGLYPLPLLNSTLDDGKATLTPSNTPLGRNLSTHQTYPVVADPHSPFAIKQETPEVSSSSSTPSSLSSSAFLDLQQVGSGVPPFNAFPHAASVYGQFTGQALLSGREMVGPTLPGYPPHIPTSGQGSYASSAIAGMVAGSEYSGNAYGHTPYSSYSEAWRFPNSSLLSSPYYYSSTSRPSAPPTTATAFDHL

SMILES: Cc1cc(-c2ccc(N)c(C)c2)ccc1N [ORTHOTOLIDINE]
IC50 [1]: 12.2 µM (active) | AC50 [2]: 20 µM (inconclusive)

SMILES: O=S(=O)(c1ccccc1F)N1CC[C@H]2[C@H](CO)Nc3ccc(C4=CCCCC4)cc3[C@H]21
AC50 [4]: 32.9 µM (active) | AC50 [5]: 26.7 µM (active) | AC50 [6]: 6.12 µM (active) | AC50 [7]: 18.4 µM (active)

SMILES: O=C(OCc1ccccc1)c1cccnc1 [BENZYL NICOTINATE]
IC50 [15]: > 20 µM (inactive) | IC50 [16]: > 20 µM (inactive) | IC50 [17]: > 20 µM (inactive) | IC50 [18]: > 20 µM (inactive) | IC50 [19]: > 20 µM (inactive) | IC50 [20]: > 20 µM (inactive)

SMILES: C=C(Cl)CSC(=S)N(CC)CC [SULFALLATE]
AC50 [2]: 10 µM (inconclusive)

SMILES: CC(=O)Nc1cccc(NC(=O)C2CCCN2C(=O)Nc2cccc(F)c2)c1 (configuration not stated)
IC50 [21]: 68.9 µM (active)

SMILES: O=C(Nc1ccncc1)Nc1ccc(Cl)cc1Cl
EC50 [22]: > 60 µM (not active) | EC50 [23]: 0.079 µM (active) | EC50 [24]: < 0.1 µM (active)

SMILES: CSc1ccc(CN2CCN(Cc3ccc([N+](=O)[O-])cc3)CC2)cc1
EC50 [22]: > 60 µM (inconclusive) | EC50 [23]: 0.135 µM (active) | EC50 [24]: < 0.1 µM (active)

Further lines, with some results ahead:

AC50 [2]: 3.98 µM (inconclusive)
SMILES: COC(=O)C/C=C/C(C)C(OCc1cccc(-c2ccccc2)c1)C1CCCCC1 (configuration not stated)

Ki [3]: 19.4 µM (inactive)
SMILES: COc1ccccc1Oc1c(C)oc2cc(OC(=O)c3ccco3)ccc2c1=O

Ki [3]: 8.5 µM (active)
SMILES: CC(C)CN(CC(C)C)C(=O)CS(=O)(=O)Cc1ccccc1

IC50 [8]: 20 µM (active) | IC50 [10]: 41 µM (not active) | IC50 [11]: > 69.5 µM (inactive) | EC50 [12]: > 53 µM (inactive) | IC50 [13]: 9.05 µM (active)
SMILES: COc1cccc(CNc2ccc([N+](=O)[O-])cc2C)c1
IC50 [9]: 27.4 µM (inactive)

IC50 [14]: 17.1 µM (active)
SMILES: Cc1csc2nc(CCNS(=O)(=O)c3ccc4c(c3)OCCO4)cn12

IC50 [14]: 25.9 µM (active)
SMILES: NC(=O)c1c(NC(=O)c2cccs2)sc2c1CCCCCC2

Ki [3]: 32.9 µM (inactive)
SMILES: COc1ccc(-n2c(Cc3cccn3C)nnc2SCC(=O)Nc2ccc(Cl)cc2)cc1
